Values quoted from earlier work in patent US20230124124A1, “COMPOSITIONS AND METHODS FOR MYOPIA CONTROL AND ORTHOKERATOLOGY LENSES TREATMENT” (Ocular Science, Inc., priority 2021, published 2023).

Legend:
[1] = system: human corneal epithelial cells; details: 0.01% BAK; within hours
corneas = details: one week of treatment

aqueous tear production (corneas): significantly reduced | fluorescein staining (corneas): increased | inflammatory cell infiltration (corneas): increased | stromal nerve fiber density (NFD) (corneas): significantly reduced
Substance: benzalkonium chloride [BAK]
effect on human corneal epithelial cells [1]: immediate cell retraction, cessation of normal cytokinesis and mitotic activity, and degeneration of human corneal epithelial cells
